Test results as given in US7645753B2, “Benzothiazole, thiazolopyridine, benzooxazole and oxazolopyridine derivatives” (Hoffmann-La Roche Inc., priority 2005, dated 2010).

biological target: T1, human subtype 5 somatostatin receptor (Homo sapiens, UniProt P35346); experiment: Radioligand binding to membranes of CHO cells expressing human SSTR5 (125I-labeled 11-Tyr somatostatin-14 tracer); details: Ki calculated from IC50 by Cheng-Prussoff equation
T1 construct: host or cells: CHO cells, stably transfected; membranes prepared by sonication and fractionating centrifugation
T1 sequence (P35346 whole entry): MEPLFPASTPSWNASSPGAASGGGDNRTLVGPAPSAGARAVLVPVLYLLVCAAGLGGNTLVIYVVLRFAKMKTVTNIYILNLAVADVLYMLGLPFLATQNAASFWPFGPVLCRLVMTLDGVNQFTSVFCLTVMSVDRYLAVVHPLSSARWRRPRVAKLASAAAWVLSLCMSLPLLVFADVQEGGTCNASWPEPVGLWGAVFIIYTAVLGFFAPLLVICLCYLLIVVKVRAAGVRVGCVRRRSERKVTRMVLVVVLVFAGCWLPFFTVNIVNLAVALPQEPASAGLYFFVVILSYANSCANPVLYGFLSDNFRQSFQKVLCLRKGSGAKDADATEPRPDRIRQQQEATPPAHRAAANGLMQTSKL
Experimental: A CHO cell line stably transfected with a plasmid encoding the human subtype 5 somatostatin receptor (GenBank accession number D16827) was obtained from Euroscreen. Cells were cultured and used for binding and functional assays.
Membranes of these cells were prepared by sonication in the presence of protease inhibitors and subsequent fractionating centrifugation. The protein concentration in the membrane preparation was determined using a commercial kit (BCA kit, Pierce, USA). Membranes were stored at −80° C. until use. After thawing, membranes were diluted in assay buffer (50 mM Tris-HCl at pH 7.4, 5 mM MgCl2 and 0.20% BSA) and subjected to dounce homogenization.
For binding studies, 0.1 mL membrane suspension, corresponding to app. 6×10^−15 mol receptor, was incubated for 1 h at room temperature with 0.05 nM ^125I-labeled tracer (11-Tyr somatostatin-14, Perkin-Elmer) and either test compounds in varying concentrations or, for the determination of non-specific binding, 0.001 mM non-labeled somatostatin-14. The incubation was stopped by filtration through GF/B glassfiber filters and washing with ice-cold wash buffer (50 mM Tris-HCl at pH 7.4). The bound radioactivity was measured after application of a scintillation cocktail (Microscint 40) and expressed as disintegrations per minute (dpm).
The receptor concentration was determined in a prior saturation experiment where a fixed, arbitrary amount of membranes was incubated with a concentration range of radio-labeled tracer. This allows estimating the total number of specific binding sites per amount of protein (i.e., Bmax), typically between 1 and 5 pmol/mg.
The concentration of the test compound required to result in half maximal inhibition of binding of the radio-labeled tracer (IC50) was estimated from a concentration-versus-dpm graph. The binding affinity (Ki) was calculated from the IC50 by applying the Cheng-Prussoff equation for single binding sites.

Row | Ki [nM] | SMILES
1 | 59 | CCOc1cc(CN2CCC(Nc3nc4ccc(Cl)cc4o3)CC2)cc(OCC)c1-n1cccc1 [Example 94, (6-chloro-benzooxazol-2-yl)-[1-(3,5-diethoxy-4-pyrrol-1-yl-benzyl)-piperidin-4-yl]-amine]
2 | 4.1 | CCOc1cc(CN2CCC(Nc3nc4cc(S(N)(=O)=O)ccc4o3)CC2)cc(OCC)c1-n1cccc1 [Example 129, 2-[1-(3,5-diethoxy-4-pyrrol-1-yl-benzyl)-piperidin-4-ylamino]-benzooxazole-5-sulfonic acid amide]
3 | 293 | CCOc1cc(CN2CCC(Nc3nc4cc(NC(=O)CC)ccc4o3)CC2)ccc1OC [Example 243, N-{2-[1-(3-ethoxy-4-methoxy-benzyl)-piperidin-4-ylamino]-benzooxazol-5-yl}-propionamide]
